{"source": "patent US20250177557A1", "about": "“METHODS OF PRODUCING MICROBUBBLE DRUG CONJUGATES, VIRAL GENE THERAPY MICROBUBBLE CONJUGATES AND TARGETED MICROBUBBLES” (priority 2022, published 2025)", "key": {"[1]": {"settings": "patients; cited from earlier work"}, "[2]": {"test_system": "human SHSY-5Y cells", "test": "Neuroprotection of differentiated SHSY-5Y cells against parkinsonian neurotoxins (CFDA cell viability)", "assay_type": "cell-based", "description": "Neuroprotection was tested in the well-established neuronal model of human SHSY-5Y cells (Lopes, F. M.,. et al. (2010) Brain Res. 1337, 85-94) treated with parkinsonian neurotoxins. Human SHSY-5Y cells were grown in 24 well dishes and differentiated into neuron-like cells by treatment with 10 μM retinoic acid (RA) for 7 days (FIG. 8A).\nCell viability was quantified by the CFDA assay as described previously (Sandhu, J. K., et al. (2009) Neurobiol. Dis. 33, 405-414.).\nRecombinant human GDNF at 50 ng/ml was used as a positive control."}, "[3]": {"settings": "MR guided focused ultrasound, one hemisphere sonicated", "description": "AAV2-GFP MDCs were injected into healthy rodents and FUS sonications used to open the BBB in the two brain regions affected by Parkinson's disease, the striatum (ST) and substantia nigra (SN). MR contrast agent gadolinium was co-injected and MR imaging performed to confirm BBB opening in the two regions.\nCDNF protein neurotrophic drug was conjugated to MDCs and delivered to the SN and ST in this manner. Only one hemisphere was sonicated so the animals acted as their own control."}, "[4]": {"settings": "brain mets patients; cited from earlier work"}}}
{"substance": "ipilimumab", "values": [{"measurement": "Incidence of grade 3 or -4 treatment-related AEs", "setting": "[1]", "value": 28, "unit": "%"}]}
{"substance": "CDNF-MDCs: Cerebral Dopamine Neurotrophic factor protein conjugated to microbubbles", "values": [{"measurement": "Neuroprotection against thapsigargin (cell viability)", "setting": "[2]; 1.0 μM thapsigargin ~16 h, pre-treatment, rhGDNF 50 ng/ml, CDNF-MDCs 25-250 ng/ml", "value": "completely protected"}, {"measurement": "Neuroprotection against MPP+ (cell viability)", "setting": "[2]; 1.0 mM MPP+ ~16 h, pre-treatment, rhGDNF 50 ng/ml, CDNF-MDCs 25-250 ng/ml", "value": "completely protected"}, {"measurement": "Concentrations at which maximum neuroprotection was reached", "setting": "[2]; MPP+ or thapsigargin", "value": "25 to 250", "unit": "ng/mL"}, {"measurement": "CDNF concentration delivered to ST and SN, sonicated vs. non-sonicated hemisphere (ELISA tissue analysis)", "setting": "[3]", "value": "significant CDNF concentration delivered to the sonicated hemispheres"}]}
{"substance": "Keytruda: checkpoint inhibitor antibody", "values": [{"measurement": "Response, share of patients", "setting": "[4]", "value": "about one third"}]}
